Measurements reported in ChEMBL document CHEMBL3507680, “University of Dundee, Gates Library screen for HepG2 cell viability”.

Assay: Human HepG2 cell viability assay in 384 well format
Type: toxicity, cell-based
Parameters: dose 125 nL, time 70.5 hour; cytotoxicity at 70.5 h: concentration not given beside the values
Conditions: HepG2 cells, read-out: Inhibition

Row | SMILES | cytotoxicity at 70.5 h
1 | CC(C)(C)n1ncc2c1NC(=O)CSC2c1ccc2c(c1)OCCO2 (stereo not drawn) | -13%
2 | CCN(CCCNC(=O)c1cc2cccc(F)c2o1)S(C)(=O)=O | -8.74%
3 | CCN(Cc1ccncc1)C1CCCN(Cc2ccc(F)cc2Cl)C1 (stereo not drawn) | 1.69%
4 | O=C(N[C@]12CC1CN(C(=O)c1ccco1)C2)c1ccco1 (stereo partly drawn) | -2.69%
5 | COc1ncccc1C(=O)N1CCCC(n2ccnc2C)C1 (stereo not drawn) | -10.3%
6 | Cn1cc(-c2ccnc(NCC3CC3)n2)cn1 | -10.3%
7 | COCCNC(=O)c1nc(NS(=O)(=O)c2ccccc2)sc1C | -18.8%
8 | O=C1[C@H]2CN(C3CCOCC3)C[C@H]2CN1Cc1cccc(F)c1 | 0.427%
9 | CC(C)NC(=O)[C@@H]1CN(C)C[C@]12COc1ccc(F)cc1C2=O | -5.13%
10 | COc1ccc2c3c1CN(C(C)=O)CC3=CC(C)(C)CO2 | 0.846%
11 | Cc1nc(CN(C)C2CCN(CCc3cnn(C)c3)C2)no1 (stereo not drawn) | 18.2%
12 | O=C(c1cocn1)N1C[C@@H]2CN(Cc3ccco3)CCO[C@@H]2C1 | -9.1%
13 | CC(=O)N(Cc1ncc(C)o1)C1CCN(Cc2csc(C)n2)C1 (stereo not drawn) | -1.47%
14 | Cc1nc(C)n(CC2CCCN(CC(=O)Nc3nnc(C)s3)C2)n1 (stereo not drawn) | 17.5%
15 | CC(=O)N1CCCC(c2nccnc2Nc2nc(C)cc(C)n2)C1 (stereo not drawn) | 13.3%
16 | CCOc1ccc(NC(=O)N(CCC#N)Cc2ccccn2)cc1F | 12%
17 | N#Cc1cccnc1N1CCC(C2CCCCCN2C(N)=O)CC1 (stereo not drawn) | -3.78%
18 | Cc1cc(C)n(CCC2CC(=O)Nc3cc(O)c(C)cc32)n1 (stereo not drawn) | -5.9%
19 | CCCn1nnnc1CN(CC)CC1COc2ccccc2O1 (stereo not drawn) | 2.13%
20 | Cc1nc([C@@H]2C[C@@H]3CCN(C(=O)Cc4cccc(F)c4)C[C@H]3O2)no1 | -8%
21 | O=C(c1cccnc1)N1CCC2(CCN(C(=O)c3ccco3)CC2)C1 | 2.92%
22 | CNC(=O)C1Cn2ccnc2C2(CCN(C(=O)CC3CCCC3)CC2)O1 (stereo not drawn) | -1.06%
23 | Cc1nc(O)cc(CCNC(=O)CN2CCCCCC2)n1 | 1.28%

Row | SMILES | cytotoxicity at 70.5 h
24 | O=C(CCc1nc(Cl)n[nH]1)N1C[C@@H](CN2CCCCCC2)[C@@H](CO)C1 | -4.12%
25 | O=C(NC1CCCCC1)c1cc(Br)cnc1N1CCCCC1 | -4.56%
26 | Cc1ccn(-c2ccc(C(=O)N3CCCC(C(N)=O)C3)cc2)n1 (stereo not drawn) | -9.79%
27 | CN(C)c1ncc(I)c(C2CCCCN2C)n1 (stereo not drawn) | -3.55%
28 | Fc1cccc(-c2cccc(N3CCC(NC4CCCOC4)CC3)c2)c1 (stereo not drawn) | 33.8%
29 | O=C(c1cccc(=O)[nH]1)N(Cc1ccsc1)CC1CCCO1 (stereo not drawn) | 5.57%
30 | COc1ccc(OC)c(C(C)Nc2ncnc3c2NC(=O)CN3)c1 (stereo not drawn) | -18.2%
31 | O=C(c1cc(F)cc2[nH]cnc12)N1CCCCC1Cn1cccn1 (stereo not drawn) | -7.7%
32 | Cc1nc(C(C)(C)C)sc1C(=O)NCCNc1ncccn1 | -8.27%
33 | Cn1nc(-c2cccc(Cl)c2)c(Br)c1C(=O)O | -16.9%
34 | CCc1ncc(C(=O)N2CCCC(c3nccn3CCOC)C2)cn1 (stereo not drawn) | -0.318%
35 | Cc1ccc(C(=O)Nc2ccn(CCC(N)=O)n2)cc1 | -3.18%
36 | CCc1cccc(-n2nnc(C(=O)O)c2-c2ccncc2)c1 | -13.1%
37 | CNc1ncccc1C(=O)N1CCN(C)C2(CCN(C)CC2)C1 | -7.09%
38 | COc1ccc(CN2CC[C@H]3[C@H]2CCN3C(=O)c2cnn(C)c2)cc1 | -0.0414%
39 | CCC(CC)C(=O)N1CCN(Cc2nc3ccccc3c(=O)[nH]2)CC1 | -14.5%
40 | CNc1ccnc(NCCC(=O)Nc2ccccc2C)n1 | -4.65%
41 | O=C1CCc2cc(S(=O)(=O)NC(=O)c3ccc4c(c3)COC4)ccc2N1 | -12.1%
42 | Cc1nc2cc(=O)[nH]n2c(C)c1CC(=O)NCc1ccc(C#N)cc1 | -0.462%
43 | Cc1cc(C)n(CC2CCCN2C(=O)c2cnccn2)n1 (stereo not drawn) | 14.8%
44 | CN1CCCN(C(=O)c2cnsn2)c2cc(F)ccc21 | 25.1%
45 | Cc1ccc(C(F)(F)F)cc1NCC(=O)Nc1c(C)nn(C)c1C | 11.3%
46 | Cc1cc(C)nc(N2CCC(c3cncc(-n4ccnc4)n3)CC2)n1 | -6.63%

Row | SMILES | cytotoxicity at 70.5 h
47 | CNC(=O)c1ccc(OC)c(NCc2noc(-c3ccsc3)n2)c1 | -11.3%
48 | Cc1cccc(C)c1OCCCN1CCC(n2cncn2)CC1 | 3.77%
49 | CCNC(=O)N1CCCC(C(=O)c2cccc(OC(C)C)c2)C1 (stereo not drawn) | -6.88%
50 | O=C(c1cc(C2CCCC2)no1)N1CCCCC1 | -15.8%
51 | Cc1nc(C)n(CC2CCCN2Cc2cnc(C)s2)n1 (stereo not drawn) | -8.97%
52 | CC(C)c1nnc2n1CC(CNCc1ccncc1)CC2 (stereo not drawn) | -3.85%
53 | Cc1ccc2nc(C3CCCN(Cc4ccccc4)C3)nc(O)c2c1 (stereo not drawn) | 0.432%
54 | O=C(CCn1ccc2cc(Br)ccc21)NC[C@@H]1CCCN2CCCC[C@H]12 | 19.3%
55 | CC(Oc1ccccc1C#N)C(=O)NC1CC1 (stereo not drawn) | -8.65%
56 | COc1ccc2nnc(CCCC(=O)Nc3nc4c(s3)CCC4)n2n1 | -17.4%
57 | COCc1nc(CNC2CSCCSC2)no1 | -11.5%
58 | CC(C)(C)n1ccc(C(=O)N2CCCC(c3ncc[nH]3)C2)c1 (stereo not drawn) | -1.92%
59 | O=C1NCC2(CCCN(Cc3ccccc3F)C2)Oc2ccccc21 (stereo not drawn) | -14.5%
60 | COCCN1CCC(NC(=O)NCC2(c3cccc(F)c3)CC2)C1 (stereo not drawn) | -8.45%
61 | COc1c(CNC(C)c2sc(C)nc2C)c(C(C)C)nn1C (stereo not drawn) | 23.8%
62 | CC(=O)c1sc(Nc2ccc(Cl)cn2)nc1C | 31.3%
63 | c1coc(-c2nnc(CN3CCOC(Cn4cccn4)C3)o2)c1 (stereo not drawn) | 6.43%
64 | Cc1nc(CN2CCCC2c2noc(C3CC3)n2)nc2ccccc12 (stereo not drawn) | 43.5%
65 | Cc1noc(C)c1CN(C)CC(=O)N1CCc2sccc2C1 | -1.77%
66 | Cc1cc(CN2CC[C@H]3C[C@@H](C)O[C@@H]3C2)no1 | -7.88%
67 | CCN(CC(F)(F)F)C(=O)C1CCCN(Cc2ccno2)C1 (stereo not drawn) | -7.36%
68 | O=C(CSc1ccccc1F)NS(=O)(=O)c1ccc2c(c1)OCCO2 | -0.308%
69 | CN1CCCN(c2nccc(-c3c[nH]nc3-c3ccncc3)n2)CC1 | -3.42%

Row | SMILES | cytotoxicity at 70.5 h
70 | COCCn1ccc(NC(=O)Nc2cccc(C#N)c2)n1 | -9.39%
71 | COCc1nc2n(n1)CCCC2Nc1nc(C2CC2)ns1 (stereo not drawn) | 1.93%
72 | CC(C)(C)n1ncc2c1CCCC2NCc1ccsc1 (stereo not drawn) | -0.727%
73 | Cc1nc(C)c(C(=O)N2CCC(Nc3cccnc3)CC2)s1 | -8.38%
74 | CC(C)c1ncc(CN2C[C@@H](CN3CCCC3)[C@@H](CO)C2)cn1 | 0.637%
75 | Cc1c(C(=O)N2CCC(N3CCCCC3)CC2)n(C)c2ccc(Cl)cc12 | -0.949%
76 | CCc1nc2n(n1)CC(NCc1cc(OC)c3c(c1)OCCO3)CC2 (stereo not drawn) | -5.82%
77 | O=S(=O)(CCc1ccccc1)Nc1cc(Cl)ccn1 | 0.152%
78 | CC(=O)N1CCO[C@@H]2CN(S(=O)(=O)c3cccs3)CC[C@@H]2C1 | -9.77%
79 | Cc1ncc2c(n1)CN(CCCOc1ccc(C#N)cc1)CC2 | 3.97%
80 | CN(Cc1cc2ccccc2o1)S(C)(=O)=O | -1.88%
81 | CCSc1ccc(NC(=O)NC2CCc3[nH]ncc3C2)cn1 (stereo not drawn) | -4.32%
82 | CC(C)C(=O)NCc1ccccc1NS(=O)(=O)c1ccccc1 | -3.22%
83 | Cc1n[nH]c(C)c1CNc1nc(-c2ccco2)nc2c1CCNCC2 | 5.99%
84 | O=C(NC(Cc1ccsc1)c1nccs1)C1CCOCC1 (stereo not drawn) | -14.6%
85 | CC(C)[C@H]1CN(C2Cc3ccccc3C2)C[C@@H]1NS(=O)(=O)N(C)C | 0.396%
86 | CCn1cc(CN(C)S(=O)(=O)c2cc(Cl)ccc2Cl)cn1 | 22.9%
87 | CCCS(=O)(=O)NC(=O)c1cc(C)n(-c2ccccc2)n1 | 7.41%
88 | CNC(=O)NCC1CCC2(CCN(C(=O)c3cccnc3)CC2)CO1 (stereo not drawn) | 3.36%
89 | CCc1nc(C2CCCN2Cc2nnc(C3CCC3)o2)no1 (stereo not drawn) | -2.49%
90 | COc1ccccc1OC1(C(=O)O)CCN(c2nccnc2OC)CC1 | 23.1%
91 | COCC1CCN(C(=O)c2cc(O)nc(CC(C)C)c2)CC1 | -7.27%
92 | CCn1nnnc1-c1cccc(NC(=O)CCn2cc(C)cn2)c1 | -7.36%

Row | SMILES | cytotoxicity at 70.5 h
93 | COc1ccccc1N(C)Cc1nc2c(cnn2C)c(=O)[nH]1 | -4.86%
94 | COc1ccc(CN(CC2CCCO2)C(=O)CN2CCOC2=O)cc1 (stereo not drawn) | -14.7%
95 | COC(=O)c1cccc(C(=O)N2CCN(c3ccc(Cl)cc3)CC2)n1 | -6.13%
96 | Cc1cc(C)n(CC2CCCN2C(=O)Cc2c(C)nc(C)[nH]c2=O)n1 (stereo not drawn) | -13.8%
97 | CC(C)OCCCNC(=O)N(C)C(C)c1ccc(-n2cncn2)cc1 (stereo not drawn) | -6.64%
98 | Cc1nc(CN2CCN(C(C)c3nc(C4CC4)no3)CC2)no1 (stereo not drawn) | -4.1%
99 | CCc1nc(C2CCCN2C(=O)CCCOc2cccc(F)c2)no1 (stereo not drawn) | -18.6%
100 | CN1CCN(C(=O)c2ncn3c2CNS(=O)(=O)c2ccccc2-3)CC1 | 1.85%
101 | Cc1ccc(S(=O)(=O)NCC2(O)CCOc3ccccc32)s1 (stereo not drawn) | -4.01%
102 | Cc1cc(C)n(CC2CN(Cc3ccc(C(N)=O)cc3)CCO2)n1 (stereo not drawn) | -4.76%
103 | Cc1nc(C)c(CN2CCOC[C@H](Oc3ccccc3)C2)s1 | -10.6%
104 | COc1ccccc1CC1CCCN(CCC(N)=O)C1 (stereo not drawn) | 5.7%
105 | CN(CCOCC1CC1)C(=O)Nc1ccc(C#N)c(Cl)c1 | -0.0375%
106 | O=C(Nc1ccccc1)[C@H]1CN2CC[C@H]1C[C@@H]2Cn1cc(CCO)nn1 | -3.35%
107 | O=C1NCCCc2[nH]c(C3CCCN(C(=O)C4CC4)C3)nc21 (stereo not drawn) | -10.4%
108 | O=C(CCCc1ccccn1)Nc1cccc(N2CCCNC2=O)c1 | -0.166%
109 | Cc1cc(N2CCN(C3CCOCC3)CC(C(=O)N(C)C)C2)ncn1 (stereo not drawn) | -6.48%
110 | CCCNC(=O)NCc1ccccc1NS(=O)(=O)c1ccccc1 | -0.797%
111 | Cc1cccc(C(C(=O)NCc2nc(-c3ncccn3)no2)N(C)C)c1 (stereo not drawn) | -2.35%
112 | O=C(NC1CCC(C(=O)N2CCSCC2)CC1)N1CCOCC1 (stereo not drawn) | -5.82%
113 | Cc1cc(=O)n(C)cc1NC(=O)Cc1cc(F)ccc1F | 2.11%
